Like-named read-outs stand apart in the source and are kept apart here.

Series [1] has as its system WSU-DLCL-2, a DLBCL line harboring a Y641F mutation in EZH2. Put plainly: DLBCL cell growth (CellTiter-Glo) with BCL-2 inhibitor after Compound A pre-treatment, WSU-DLCL2. The series is classed as cell-based. Conditions: Homo sapiens, read-out: gIC50.
Description: (§1) Plates were incubated for 6 days at 37° C. in 5% CO2. Cells were then lysed with CellTiter-Glo (CTG) (Promega) according to the manufacturer's protocol and chemiluminescent signal was detected with a TECAN Safire2 microplate reader. CTG estimates cell number through detection of cellular ATP levels. In addition, an untreated plate of cells was harvested at the time of compound addition (T0) to quantify the starting number of cells. CTG values were expressed as a percent of the T0 value and plotted against compound concentration.
Series [2] deals with SU-DHL-6, a DLBCL line harboring a Y641N mutation in EZH2. The series can be described thus: DLBCL cell growth (CellTiter-Glo) with BCL-2 inhibitor after Compound A pre-treatment, SU-DHL-6. The series is classed as cell-based. Conditions: for IC50: Homo sapiens, read-out: gIC50. Background: In ATP-based viability assays light output follows the ATP content of the culture.
Description: as §1
Series [3] relates to KARPAS-422, a DLBCL line harboring a Y641N mutation in EZH2. The series can be described thus: DLBCL cell growth (CellTiter-Glo) with BCL-2 inhibitor after Compound A pre-treatment, KARPAS-422. The settings on record: for IC50: read-out: gIC50.
Description: as §1
Series [4] relates to Farage, a DLBCL line harboring WT EZH2. The series can be described thus: DLBCL cell growth (CellTiter-Glo) with BCL-2 inhibitor after Compound A pre-treatment, Farage. In kind it is cell-based. The settings on record: for IC50: read-out: gIC50.
Description: as §1
[5] abbreviates: WSUDLCL2, 144 h, WSU-DLCL2, BCL2 inhibitor alone (no Compound A), 6 days.
The mark [6] stands for this setting: WSUDLCL2, WSU-DLCL2, Compound A 250 nM 72 h pre-treatment then 6 day co-treatment.
Where [7] appears, read: 144 h, SU-DHL-6, BCL2 inhibitor alone (no Compound A), 6 days.
Setting [8] is: SU-DHL-6, Compound A 250 nM 72 h pre-treatment then 6 day co-treatment.
Setting [9] is: KARPAS-422, BCL2 inhibitor alone (no Compound A), 6 days.
The mark [10] stands for this setting: KARPAS-422, Compound A 100 nM 72 h pre-treatment then 6 day co-treatment.
Setting [11] is: KARPAS-422, Compound A 500 nM 72 h pre-treatment then 6 day co-treatment.
Where [12] appears, read: 144 h, BCL2 inhibitor alone (no Compound A), 6 days.
Where [13] appears, read: Compound A 1 μM 72 h pre-treatment then 6 day co-treatment.

Take `CC1(C)CCC(c2ccc(Cl)cc2)=C(CN2CCN(c3ccc(C(=O)NS(=O)(=O)c4ccc(N[C@H](CCN5CCOCC5)CSc5ccccc5)c(S(=O)(=O)C(F)(F)F)c4)cc3)CC2)C1` [ABT-263]: the IC50 came out at 0.464 µM in series [1] (setting [5]); 1.15 µM in series [1] (setting [6]); 0.518 µM in series [2] (setting [7]); 0.017 µM in series [2] (setting [8]); 0.169 µM in series [3] (setting [9]); 0.06 µM in series [3] (setting [10]). In addition, the IC50 in series [3] (setting [11]) amounted to 0.0004 µM; in series [4] (setting [12]) it was 0.455 µM; in series [4] (setting [13]) it was 0.011 µM. Besides, the “Fold shift in potency over ABT-263 alone” value came out at 31 in series [2] (SU-DHL-6, Compound A 250 nM); 2.8 in series [3] (KARPAS-422, Compound A 100 nM); 423 in series [3] (KARPAS-422, Compound A 500 nM); 43 in series [4] (Compound A 1 μM).
Consider `CN(C)CC[C@H](CSc1ccccc1)Nc1ccc(S(=O)(=O)NC(=O)c2ccc(N3CCN(Cc4ccccc4-c4ccc(Cl)cc4)CC3)cc2)cc1[N+](=O)[O-]` [ABT-737], for which the IC50 stood at 1.41 µM in series [1] (setting [5]); 0.971 µM in series [1] (setting [6]); 1.33 µM in series [2] (setting [7]); 0.11 µM in series [2] (setting [8]); 0.334 µM in series [3] (setting [9]); 0.078 µM in series [3] (setting [10]). In addition, the values for the IC50 in series [3] (setting [11]), in series [4] (setting [12]) and in series [4] (setting [13]) were 0.0011 µM, 4.71 µM and 0.246 µM, respectively. The “Fold shift in potency over ABT-737 alone” value in series [2] (SU-DHL-6, Compound A 250 nM) turned out to be 12; in series [3] (KARPAS-422, Compound A 100 nM), 4.3; in series [3] (KARPAS-422, Compound A 500 nM), 304; in series [4] (Compound A 1 uM), 19.

Source of the values: patent publication US20150313906A1, “COMBINATION” (GLAXOSMITHKLINE LLC, priority 2012, published 2015).
